Measured values taken from patent US20050282818A1, “Ubiquitin ligase inhibitors” (Rigel Pharmaceuticals, Inc., priority 2004, published 2005).

test system: ICAM-1 expression in A549 cells; assay: ICAM assay (IL-1 induced ICAM-1/CD54 expression in A549 cells); format: cell-based, human; conditions: Homo sapiens, A549, ICAM assay
Summary of the method: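 A549 cells, 10,000/well, preincubated with compound 1 h at 37° C, then stimulated with IL-1 (4 μl of 25 ng/ml added) for 4 h. Surface ICAM-1 detected by anti-CD54 plus anti-mouse IgG staining for 1 h, luminescent read-out after PBS washes.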

Row | SMILES | IC50 [µM]
1 | O=[N+]([O-])c1ccc(SCCO)c2nonc12 [compound 150, 2-[(7-nitro-2,1,3-benzoxadiazol-4-yl)thio]ethanol] | ≥ 20
2 | COC(=O)c1ccc(NS(=O)(=O)c2ccc(F)c3nonc23)cc1 [compound 167, methyl 4-{[(7-fluoro-2,1,3-benzoxadiazol-4-yl)sulfonyl]amino}benzoate] | ≥ 20
3 | O=S(=O)(c1ccc(Cl)c2nonc12)N1CCN(c2ncccn2)CC1 [compound 184, 4-chloro-7-[(4-pyrimidin-2-ylpiperazin-1-yl)sulfonyl]-2,1,3-benzoxadiazole] | ≥ 20
4 | O=c1[nH]c2ccccc2n1C1CCN(S(=O)(=O)c2ccc(Cl)c3nonc23)CC1 [compound 188, 1-{1-[(7-chloro-2,1,3-benzoxadiazol-4-yl)sulfonyl]piperidin-4-yl}-1,3-dihydro-2H-benzimidazol-2-one] | ≥ 20
5 | CC1CC(C)CN(S(=O)(=O)c2ccc(Cl)c3nonc23)C1 (stereo not drawn) [compound 192, 4-chloro-7-[(3,5-dimethylpiperidin-1-yl)sulfonyl]-2,1,3-benzoxadiazole] | ≥ 20
6 | O=S(=O)(Nc1ccc2cn[nH]c2c1)c1ccc(Cl)c2nonc12 [compound 220, 7-chloro-N-1 H-indazol-6-yl-2,1,3-benzoxadiazole-4-sulfonamide] | ≥ 20
7 | O=S(=O)(c1ccc(Sc2ccc(O)cc2)c2nonc12)N1CCC(Oc2ncccn2)CC1 [compound 226, 4-[(7-{[4-(pyrimidin-2-yloxy)piperidin-1-yl]sulfonyl}-2,1,3-benzaxadiazol-4-yl)thio]phenol] | ≥ 20
8 | O=S(=O)(Nc1cccc(F)c1)c1ccc(Cl)c2nonc12 [compound 263, 7-chloro-N-(3-fluorophenyl)-2,1,3-benzoxadiazole-4-sulfonamide] | ≥ 20

Now from value to compound:

Row | IC50 [µM] | SMILES
9 | ≥ 20 | N#Cc1cccnc1N1CCN(S(=O)(=O)c2ccc(Cl)c3nonc23)CC1 [compound 170, 2-{4-[(7-chloro-2,1,3-benzoxadiazol-4-yl)sulfonyl]piperazin-1-yl}nicotinomtrile]
10 | ≥ 20 | COC(=O)c1ccc(NS(=O)(=O)c2c(Cl)ccc3nonc23)cc1 [compound 178, methyl 4-{[(5-chloro-2,1,3-benzoxadiazol-4-yl)sulfonyl]amino}benzoate]
11 | ≥ 20 | N#Cc1ccccc1N1CCN(S(=O)(=O)c2c(Cl)ccc3nonc23)CC1 [compound 180, 2-{4-[(5-chloro-2,1,3-benzoxadiazol-4-yl)sulfonyl]piperazin-1-yl}benzonitrile]
12 | ≥ 20 | O=S(=O)(c1ccc(Cl)c2nonc12)N1CCN(c2ccccc2)CC1 [compound 186, 4-chloro-7-[(4-phenylpiperazin-1-yl)sulfonyl]-2,1,3-benzoxadiazole]
13 | ≥ 20 | O=S(=O)(c1c(Cl)ccc2nonc12)N1CCN(c2cnccn2)CC1 [compound 200, 5-chloro-4-[(4-pyrazin-2-ylpiperazin-1-yl)sulfonyl]-2,1,3-benzoxadiazole]
14 | ≥ 20 | CC(=O)N1CCN(S(=O)(=O)c2c(Cl)ccc3nonc23)CC1 [compound 201, 4-[(4-acetylpiperazin-1-yl)sulfonyl]-5-chloro-2,1,3-benzoxadiazole]
15 | ≥ 20 | Cc1cccc(N2CCN(S(=O)(=O)c3c(Cl)ccc4nonc34)CC2)n1 [compound 202, 5-chloro-4-{[4-(6-methylpyridin-2-yl)piperazin-1-yl]sulfonyl}-2,1,3-benzoxadiazole]
16 | ≥ 20 | N#Cc1ccc(N2CCN(S(=O)(=O)c3c(Cl)ccc4nonc34)CC2)nc1 [compound 209, 6-{4-[(5-chloro-2,1,3-benzoxadiazol-4-yl)sulfonyl]piperazin-1-yl}nicotinonitrile]
17 | ≥ 20 | CC(=O)N1CCN(S(=O)(=O)c2c(Sc3cccc4cccnc34)ccc3nonc23)CC1 [compound 214, 8-({4-[(4-acetylpiperazin-1-yl)sulfonyl]-2,1,3-benzoxadiazol-5-yl}thio)quinoline]
18 | ≥ 20 | O=S(=O)(Nc1ccc(F)c(F)c1)c1ccc(Cl)c2nonc12 [compound 262, 7-chloro-N-(3,4-difluorophenyl)-2,1,3-benzoxadiazole-4-sulfonamide]
